From US20220151995A1, “PHARMACEUTICAL COMPOSITION FOR TREATING CANCER AND SUPPRESSING METASTASIS, CONTAINING SULFONAMIDE-BASED COMPOUND AS ACTIVE INGREDIENT” (EXOSTEMTECH CO., LTD, priority 2015, published 2022)

What was measured:
[1] = test system: MDA-MB231-CD63-GFP(+) cells; test: Exosome (CD63-GFP) secretion screening of FDA-approved drugs, supernatant fluorescence; format: cell-based; conditions: 24 h, fluorescence 485/538 nm, % of control group, read-out: exosome inhibition rate (relative fluorescence, of control group)
Method: Among a total of 1,163 FDA-approved drug libraries, drugs effective in inhibiting exosome secretion of the MDA-MB231 triple negative breast cancer cell line were selected by carrying out screening twice. Sulfisoxazole, Sulfadiazine, Sulfathiazole and Ambrisentan, all of which are ETA receptor antagonists, were selected.
The percentage of inhibition rate of exosome secretion was evaluated for each of the selected ETA receptor antagonists. Briefly, MDA-MB231-CD63-GFP(+) cells were incubated with 30 pM of 1,163 individual FDA-approved drugs for 24 h. The fluorescence of each supernatant was measured at 485 nm (excitation) and 538 nm (emission) using a fluorescence microplate reader. Y-axis indicates the inhibition rate of exosome (CD63-GFP), and X-axis indicates the number of FDA-approved drugs.

MDA-MB231 cells [2] = test: Cancer cell migration, scratch assay (T-scratch); format: cell-based; conditions: 24 hours, medium containing 2% serum; T-scratch quantification
Method: MDA-MB231 cells were seeded in a 24-well plate at 2×10^5 cells/well, and then incubated for 24 hours for the proliferation to a monolayer. After the incubation for 24 hours, the monolayer was straightly scratched with a yellow tip. The cells were washed with PBS to remove floating cells, and then photographed (0 h). Thereafter, a drug was added to a medium containing 2% serum, and then the cells were treated with the medium, and then incubated for 24 hours (24 h). After 24 hours, the cells were photographed for the same site to compare cell migration. The measurement of cell migration was carried out using T-scratch program.

MDA-MB231 cells [3] = test: Matrigel invasion assay; format: cell-based; conditions: 25, 50, 100 and 200 μM, 48 hours, compared with the controls
Method: A 8[…] insert was placed in a 24-well plate, coated with serum-free medium and Matrigel, and then solidified at 37 for 4 hours. Then, 800µ1 of 10% FBS was added to the lower chamber and 1×10^4 MDA-MB231 cells were added to the upper chamber, followed by treatment with sulfisoxazole or sulfadoxine at 25, 50, 100, and 200µM. After 48 hours, the Matrigel in the insert was removed, followed by washing with PBS, and then the lower chamber was fixed with 60% ethanol, and then stained with crystal violet.

MDA-MB231 cells [4] = test: Cancer cell proliferation, MTT assay; format: cell-based; conditions: 25, 50, 100 and 200 μM; MTT absorbance at 495 nm; compared with the control
Method: After the 12-hour incubation, the cells were treated with sulfisoxazole and sulfadoxine at 25, 50, 100, and 200µM, and then re-treated with the same drugs […]. Thereafter, the cells were treated with MT tetrazolium reagent for each time, and then incubated for […]. After 4 hours, the cell proliferation effect was investigated by measuring the absorbance at 495 nm of reduced MTT formazan (3-(4,5-dimethylthiazol-2-yl)-2,5-diphenyl-tetrazolium bromide). The docetaxel (10µM), which is an anticancer drug currently in use, was used as a control.

A549 cells = test: Cancer cell proliferation, WST-1 assay; format: cell-based; conditions: 100 μM and 200 μM daily, 72 hours; compared to control (DMSO)
Method: A549 cells were seeded in a 12-well plate at a concentration of 3×10^4 cells/well and then stabilized with growth medium for 24 hours. To evaluate cancer cell growth inhibition, SFX was treated daily at different concentrations (0, 100, 200 μM). After 72 hours, cell growth rate was determined by WST-1 assay (FIG. 13).

LLC1 tumor cells = test system: LLC1 tumor cells
Method: The cancer animal models were prepared on the last day acclimatization. C57BL/6 mice used for the production of LLC1 tumor mouse model were used as experimental animals, and after inoculation of LLC1 tumor cells in the mouse thigh at a concentration of 5×10^5 cells/head, SFX was administered from the time when the tumor volume reached 50 mm^3.
After uniformly mixing the SFX solution prepared for each concentration by vortexing, a sonde for mice was connected to a 1 mL syringe to fill the solution, and 100 μL of the solution was orally administered to each mouse in each group.
Tumor volume was measured daily. The volume of the tumor was measured using a vernier caliper on the major axis and the minor axis, and the height was calculated as ½ the size of the minor axis.
[Tumor volume (mm3)=major axis (mm)×minor axis (mm)×½ of the minor axis]
Mouse body weight was measured every other day from the start of the test, and was measured after oral administration of the drug.

A549 = test: Cancer exosome secretion, number of exosomes by Nanosight; format: cell-based; conditions: SFX 100 μM and 200 μM, one day; compared to control (DMSO)
Method: After seeding 2×10^6 cells of A549 in T-flask, they were stabilized with growth medium for 24 hours. To isolate cancer exosomes, T-flask was treated with SFX at different concentrations (0, 100, 200 μM), and then lung cancer cells were cultured for one day. After the cell culture medium was collected and filtered, exosomes were separated through ultracentrifugation, and the number of exosomes was determined with Nanosight (FIG. 11).

Row | Structure (SMILES) | activity at 30 pM [1] [%] | migration of cancer cells (MDA-MB231 cells [2]) | invasion of cancer cells (MDA-MB231 cells [3]) | proliferation of MDA-MB231 cell lines (MDA-MB231 cells [4]) | other results
1 | COC(c1ccccc1)(c1ccccc1)[C@H](Oc1nc(C)cc(C)n1)C(=O)O [ambrisentan, Ambrisentan] | 101 |  |  |  | 
2 | Nc1ccc(S(=O)(=O)Nc2ncccn2)cc1 [sulfadiazine, Sulfadiazine] | 89.9 |  |  |  | 
3 | COc1ncnc(NS(=O)(=O)c2ccc(N)cc2)c1OC [sulfadoxine] |  | inhibited dependent on the concentration | significantly inhibited | significantly inhibited | 
4 | Nc1ccc(S(=O)(=O)Nc2nccs2)cc1 [sulfathiazole, Sulfathiazole] | 93.8 |  |  |  | 
5 | Cc1noc(NS(=O)(=O)c2ccc(N)cc2)c1C [sulfisoxazole] | 60.8 | inhibited dependent on the concentration | significantly inhibited | inhibited dependent on the concentration | A549 cell growth (A549 cells): inhibited in a concentration-dependent manner; tumor weight (LLC1 tumor cells; 200 and 400 mg/kg orally, end of the experiment, compared to vehicle group): tendency to decrease; mice that died (survival) (LLC1 tumor cells; oral SFX administration for each concentration): no mice that died; body weight of the animals (LLC1 tumor cells; oral SFX administration, measured every other day): did not show a significant change; level of cancer exosome secretion (A549): significantly reduced
